For 3 compounds, median survival and T cell editing results are on record in patent US20260102505A1, “ANTI-CD45-IGN ANTIBODY DRUG CONJUGATES AND USES THEREOF” (Vor Biopharma Inc., priority 2022, published 2026).

Structures are written as SMILES.

The subject of test [1] is recurrent angioimmunoblastic T-cell lymphoma patient-derived xenograft. Briefly: PDX model of recurrent angioimmunoblastic T-cell lymphoma, survival. In kind it is in vivo, mice. The protocol: Anti-CD45-ADC was further tested in a PDX model of recurrent angioimmunoblastic T-cell lymphoma. A single dose of anti-CD45-ADC (Ab5-DGN549) was administered to a group of mice when tumor levels reached ˜10% in peripheral blood, around day 27. Control groups received either PBS, isotype-ADC, CD45 mAb, ARA-C at 30 mg/kg QDx5, or Dexamethasone at 5 mg/kg Q3Dx10. Long-term disease survival was monitored.

The subject of test [2] is erythroid-specific BCL11A enhancer-edited CD34+ cells. Nature of the test: Conditioning and engraftment of BCL11A enhancer-edited CD34+ cells in rhesus macaques. In kind it is in vivo. Particulars: busulfan 5.5 mg/kg×4 days, 25-34 weeks. The method, then:
Rhesus macaques were treated with a single dose of anti-CD45-ADC (Ab5-DGN549) at either 0.2 or 0.3 mg/kg followed by engraftment of erythroid-specific BCL11A enhancer-edited CD34+ cells.
For transplant studies, rhesus macaque CD34+ HSPCs were electroporated with 3×NLS SpCas9 protein and two RNAs targeting the +55 and +58 BCL11A erythroid enhancers.
A similar experiment was performed in Rhesus macaques. Rhesus macaques were treated with either 0.2 or 0.3 mg/kg of an anti-CD45-ADC as a single IV bolus. At day 10, the macaques underwent an HSC transplant with autologous gene-edited BCL11a enhancer −/− cells, and were monitored over time (FIG. 15A). A cohort of macaques were treated with Busulfan (5.5-6 mg/kg QDx4) as a control.
Two additional rhesus macaques were conditioned with 0.2 mg/kg anti-CD45 ADC and infused with autologous HSPCs transduced with a barcoded lentiviral vector.

Test [3] relates to relapsed/refractory acute myeloid leukemia (AML) patient-derived xenograft. Briefly: PDX model of relapsed/refractory AML, survival. In kind it is in vivo, mice. The note with it: R/R AML PDX; 30 mg/kg QDx5. The method, then: Anti-malignancy activity of an anti-CD45-ADC was assessed using a patient-derived xenograft (PDX) model of relapsed/refractory acute myeloid leukemia (AML). A single dose of anti-CD45-ADC (Ab5-DGN549) was administered to a group of mice when tumor levels reached ˜10% in peripheral blood, around day 24. Control groups received either PBS, isotype-ADC, CD45 mAb, or ARA-C at 30 mg/kg QDx5. Long-term, disease-free survival was monitored.
The anti-malignancy activity was assessed in a patient-derived xenograft (PDX) model of relapsed/refractory acute myeloid leukemia (AML).

Take `C[C@@H]1C[C@H]2[C@@H]3CCC4=CC(=O)C=C[C@]4(C)[C@@]3(F)[C@@H](O)C[C@]2(C)[C@@]1(O)C(=O)CO` [Dexamethasone]: in test [1] (5 mg/kg Q3Dx10), the median survival stood at 48 days.

As to `CS(=O)(=O)OCCCCOS(C)(=O)=O` [Busulfan, reference compound], the T cell editing in test [2] is 8-31%.

Consider `Nc1ccn([C@@H]2O[C@H](CO)[C@@H](O)[C@@H]2O)c(=O)n1` [ARA-C, reference compound], for which the median survival came out at 64 days in test [3] and 48 days in test [1] (30 mg/kg QDx5).
